Experimental data as given in PMC7794297.

Experiments:
[1] = Spermidine-templated DCL of building blocks 1-4;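 note: Spermidine-templated dynamic combinatorial library, normalized change of RPA compared between Secox-free and Secox-containing libraries, DCC runs done in triplicate, values given as mean ± SD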
[2] = NADPH-templated DCL of building blocks 1-4;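 note: values are means ± SD of DCC experiments run in triplicate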
[3] = molecular target: T1, glucose oxidase (GOx) (Aspergillus niger, UniProt P13006); assay: Glucose oxidase-directed DCL of building blocks 1-4; design: purchased Sigma Aldrich; unit not given here; settings: blank vs GOx template DCL; GOx 57 μM, Secox 5% mol, 24 h
Experimental: The equilibration of the DCL was completed after 24 h (Fig. 9) and the oligomers were identified by HPLC-MS (Supplementary Figs. 4–20). The precise composition of the DCL (with and without GOx), was assessed by measuring the relative peak area (RPA). The normalized change of RPA was used to quantify the protein influence in the final DCL showing the amplification of the dimer of compound 4, that is (4)2 (Fig. 9b). Control experiments were set up to verify that the amplification of the dimer was not due to unspecific binding. Firstly the GOx was replaced by the bovine serum albumin (BSA). A stability study of BSA under the DCL conditions was performed using a fluorescence technique confirming the BSA stability in the DCL experiment (Supplementary Fig. 48)[50].
The DCL was stabilized for 24 h at 6 °C. Then, GOx was removed by ultracentrifugation through an Amicon ultra-filter (100 KDa). HPLC analysis was performed.

[4] = molecular target: bovine serum albumin (BSA) (Bos taurus, UniProt P02769); assay: BSA-directed DCL of building blocks 1-4; design: purchased Roche; key to NC of RPA: normalized change of relative peak area (RPA) vs blank DCL
[5] = Spermine-templated DCL of building blocks 1-4; settings: spermine DCL of 1-4
Experimental: Building blocks 2 and 3 equipped with carboxylate moieties to establish interactions with the protonated amine groups of the spermine were allowed to equilibrate at pH 7.8 and 6 °C (Fig. 8a). As expected in our control experiment, the major component in the absence of spermine was the linear tetramer (2)2(3)2. After the addition of spermine, the linear tetramer “decomposed” in order to form mainly the cyclic tetramer of (2)4, and the (3)2 dimer (Fig. 8a). As it was reported, several studies determined that the spermine was threaded through the macrocycle fixing the configuration to a highly symmetric stereoisomer of (2)4[36]. […] The precise composition of the DCL (with and without spermine), was assessed by measuring the relative peak area (RPA). Indeed, the normalized change of RPA was used to quantify the spermine influence in the outcome (Supplementary Fig. 42)[46]. The same template (spermine) was tested in our reference DCL of four building blocks (1–4) in the absence and presence of Secox (Fig. 8b). […] Additionally, two different templates were tested to confirm the absence of conflict between selenocystine and the templating effect. Spermidine and NADPH were introduced in our 4 building blocks DCL (1–4) in the absence and presence of Secox, leading to the amplification of different species and getting the same results as the non-catalyzed DCLs (Supplementary Figs. 44, 45, Supplementary Tables 7–10, and Supplementary Methods).
The mixture was stabilized in 96 h. […] The mixture was stabilized after 24 h. […] It was stabilized in 24 h. […] DCL was equilibrated in 96 h. DCLs were performed without stirring at 6 °C and analyzed by HPLC-MS.

[6] = molecular target: T1, glucose oxidase (GOx); assay: Tryptophan fluorescence emission binding experiments with GOx; design: purchased Sigma Aldrich; settings: for Emmsion average / Normalized Fluorescence: Supplementary Figure 52 b
[7] = molecular target: T1, glucose oxidase (GOx); assay: GOx activity assay, glucose oxidase-horseradish peroxidase coupled system with o-dianisidine; type: biochemical; design: purchased Sigma Aldrich; settings: for 1/Vo: Lineweaver-Burk;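 for GOx activity: GOx activity followed by o-dianisidine absorbance at 500 nm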

T1 sequence (P13006 17-605): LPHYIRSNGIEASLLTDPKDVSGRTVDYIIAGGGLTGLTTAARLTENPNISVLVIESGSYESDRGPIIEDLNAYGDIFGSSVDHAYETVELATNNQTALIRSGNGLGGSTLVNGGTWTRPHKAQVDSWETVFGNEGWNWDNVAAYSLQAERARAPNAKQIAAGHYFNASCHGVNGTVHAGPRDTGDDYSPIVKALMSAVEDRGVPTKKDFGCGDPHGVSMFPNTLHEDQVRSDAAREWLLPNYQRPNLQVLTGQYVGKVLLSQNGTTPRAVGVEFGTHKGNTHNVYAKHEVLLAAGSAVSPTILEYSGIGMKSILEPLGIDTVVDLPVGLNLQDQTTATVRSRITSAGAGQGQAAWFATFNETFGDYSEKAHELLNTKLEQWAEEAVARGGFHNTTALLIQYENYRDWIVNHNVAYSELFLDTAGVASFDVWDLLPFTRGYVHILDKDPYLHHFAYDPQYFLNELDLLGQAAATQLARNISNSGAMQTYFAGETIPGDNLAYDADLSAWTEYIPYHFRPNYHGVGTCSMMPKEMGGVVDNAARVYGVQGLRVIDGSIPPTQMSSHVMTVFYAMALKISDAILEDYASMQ
bovine serum albumin (BSA), sequence (P02769 25-607): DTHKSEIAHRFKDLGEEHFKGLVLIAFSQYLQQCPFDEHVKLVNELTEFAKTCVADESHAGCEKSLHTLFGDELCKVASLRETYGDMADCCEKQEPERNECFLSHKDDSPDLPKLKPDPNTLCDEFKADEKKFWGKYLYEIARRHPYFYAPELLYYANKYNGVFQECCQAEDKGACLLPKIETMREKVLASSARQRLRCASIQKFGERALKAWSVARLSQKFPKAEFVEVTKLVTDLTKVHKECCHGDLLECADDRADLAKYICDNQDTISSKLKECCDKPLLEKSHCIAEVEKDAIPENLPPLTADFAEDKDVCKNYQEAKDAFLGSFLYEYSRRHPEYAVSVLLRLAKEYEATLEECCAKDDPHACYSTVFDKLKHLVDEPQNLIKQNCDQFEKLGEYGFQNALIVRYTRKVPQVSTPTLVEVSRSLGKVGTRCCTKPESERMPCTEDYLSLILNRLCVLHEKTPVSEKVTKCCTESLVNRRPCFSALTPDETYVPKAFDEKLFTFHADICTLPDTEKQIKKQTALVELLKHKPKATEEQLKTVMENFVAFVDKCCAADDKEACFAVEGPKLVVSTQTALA

## c1ccc(SSc2ccccc2)cc1 [(4)2]
[1]; 0% Secox
  Normalized Change of RPA (NC): -0,49
[1]; 5% Secox
  Normalized Change of RPA (NC): -0,50
[2]; 0% Secox
  Normalized Change of RPA (NC): -1,00
[2]; 5% Secox
  Normalized Change of RPA (NC): -1,00
[3]
  NC of RPA: 39,73
[4]; GOx replaced by BSA
  amplification in the BSA-templated DCL: did not amplify
[4]; blank vs BSA-DCL, BSA 57 µM, Secox 5% mol, 24 h
  NC of RPA: 0,02
[5]; 0% Secox
  Normalized Change of RPA (NC): 0,59
[5]; 5% Secox
  Normalized Change of RPA (NC): 0,53
[6]; [(4)2] 40 μM
  Emmsion average: 2487781
  Normalized Fluorescence: 0.09492
[6]; [(4)2] 80 μM
  Emmsion average: 2153387
  Normalized Fluorescence: 0.2166
[6]; [(4)2] 400 μM
  Emmsion average: 1756334
  Normalized Fluorescence: 0.361
[6]; [(4)2] 2000 μM
  Emmsion average: 1449655
  Normalized Fluorescence: 0.4726
[6]; [(4)2] 4000 μM
  Emmsion average: 1064446
  Normalized Fluorescence: 0.6127
[6]; [(4)2] 8000 μM
  Emmsion average: 516610
  Normalized Fluorescence: 0.8121
[6]; [(4)2] 16000 μM
  Emmsion average: 236911
  Normalized Fluorescence: 0.9138
[6]; apparent dissociation constant, GOx 0.8 µM, Tris pH 7.8, 5% DMSO, 10 °C, read-out: Kd'
  Kd: 110000 ± 10000 nM
[7]; IC50 data, inhibitor 1.4 nM, glucose 10 mM
  GOx Activity: 0.07285 min⁻¹
[7]; IC50 data, inhibitor 3.5 nM, glucose 10 mM
  GOx Activity: 0.0762 min⁻¹
[7]; IC50 data, inhibitor 7.0 nM, glucose 10 mM
  GOx Activity: 0.0665 min⁻¹
[7]; IC50 data, inhibitor 14.0 nM, glucose 10 mM
  GOx Activity: 0.0785 min⁻¹
[7]; IC50 data, inhibitor 70.0 nM, glucose 10 mM
  GOx Activity: 0.0871 min⁻¹
[7]; IC50 data, inhibitor 140.0 nM, glucose 10 mM
  GOx Activity: 0.08235 min⁻¹
[7]; IC50 data, inhibitor 700.0 nM, glucose 10 mM
  GOx Activity: 0.0656 min⁻¹
[7]; IC50 data, inhibitor 1400.0 nM, glucose 10 mM
  GOx Activity: 0.0557 min⁻¹
[7]; IC50 data, inhibitor 7000.0 nM, glucose 10 mM
  GOx Activity: 0.0417 min⁻¹
[7]; IC50 data, inhibitor 140000.0 nM, glucose 10 mM
  GOx Activity: 0.0376 min⁻¹
[7]; Ki data, inhibitor 7,0·10^-7 M, [Glucose] 0.0002 M
  GOx Activity: 0.0019 min⁻¹
[7]; Ki data, inhibitor 7,0·10^-7 M, [Glucose] 0.0007 M
  GOx Activity: 0.0067 min⁻¹
[7]; Ki data, inhibitor 7,0·10^-7 M, [Glucose] 0.0014 M
  GOx Activity: 0.01145 min⁻¹
[7]; Ki data, inhibitor 7,0·10^-7 M, [Glucose] 0.0028 M
  GOx Activity: 0.02218 min⁻¹
[7]; Ki data, inhibitor 7,0·10^-7 M, [Glucose] 0.004 M
  GOx Activity: 0.02548 min⁻¹
[7]; Ki data, inhibitor 7·10^-8 M, [Glucose] 0.0002 M
  GOx Activity: 0.0021 min⁻¹
[7]; Ki data, inhibitor 7·10^-8 M, [Glucose] 0.0007 M
  GOx Activity: 0.01063 min⁻¹
[7]; Ki data, inhibitor 7·10^-8 M, [Glucose] 0.0014 M
  GOx Activity: 0.01978 min⁻¹
[7]; Ki data, inhibitor 7·10^-8 M, [Glucose] 0.0028 M
  GOx Activity: 0.03193 min⁻¹
[7]; Ki data, inhibitor 7·10^-8 M, [Glucose] 0.004 M
  GOx Activity: 0.0385 min⁻¹
[7]; Ki data, inhibitor 14·10^-7 M, [Glucose] 0.0002 M
  GOx Activity: 0.00175 min⁻¹
[7]; Ki data, inhibitor 14·10^-7 M, [Glucose] 0.0007 M
  GOx Activity: 0.006225 min⁻¹
[7]; Ki data, inhibitor 14·10^-7 M, [Glucose] 0.0014 M
  GOx Activity: 0.013 min⁻¹
[7]; Ki data, inhibitor 14·10^-7 M, [Glucose] 0.0028 M
  GOx Activity: 0.01805 min⁻¹
[7]; Ki data, inhibitor 14·10^-7 M, [Glucose] 0.004 M
  GOx Activity: 0.02392 min⁻¹
[7]; Ki data, inhibitor 14·10^-8 M, [Glucose] 0.0002 M
  GOx Activity: 0.001875 min⁻¹
[7]; Ki data, inhibitor 14·10^-8 M, [Glucose] 0.0007 M
  GOx Activity: 0.008475 min⁻¹
[7]; Ki data, inhibitor 14·10^-8 M, [Glucose] 0.0014 M
  GOx Activity: 0.0135 min⁻¹
[7]; Ki data, inhibitor 14·10^-8 M, [Glucose] 0.0028 M
  GOx Activity: 0.0304 min⁻¹
[7]; Ki data, inhibitor 14·10^-8 M, [Glucose] 0.004 M
  GOx Activity: 0.0395 min⁻¹
[7]; inhibitor 0,7 µM, 1/[glucose] 250 M-1
  1/Vo: 41.8673 min
[7]; inhibitor 0,7 µM, 1/[glucose] 357 M-1
  1/Vo: 59.4498 min
[7]; inhibitor 0,7 µM, 1/[glucose] 714 M-1
  1/Vo: 110.461 min
[7]; inhibitor 0,7 µM, 1/[glucose] 1430 M-1
  1/Vo: 185.984 min
[7]; inhibitor 0,7 µM, 1/[glucose] 5000 M-1
  1/Vo: 603.288 min
[7]; inhibitor 1,4 µM, 1/[glucose] 250 M-1
  1/Vo: 56.7644 min
[7]; inhibitor 1,4 µM, 1/[glucose] 357 M-1
  1/Vo: 75.4986 min
[7]; inhibitor 1,4 µM, 1/[glucose] 714 M-1
  1/Vo: 81.9727 min
[7]; inhibitor 1,4 µM, 1/[glucose] 1430 M-1
  1/Vo: 178.284 min
[7]; inhibitor 1,4 µM, 1/[glucose] 5000 M-1
  1/Vo: 687.292 min
[7]; Lineweaver–Burk plots
  Inhibitor Type: non-competitive
[7]; [Glucose] 10 mM, 37 °C, sodium acetate buffer pH 5.1
  IC50: 1800 ± 100 nM
[7]; non-competitive inhibition model, 37 °C, sodium acetate buffer pH 5.1
  Ki: 1700 ± 200 nM
